Data reported in paper PMC7468108 (Communications Biology, 2020).

Experiments:
[1] = target: T1, hIAPP (Homo sapiens, UniProt P10997); experiment: TEM of hIAPP fibrils formed with the tested molecules; conditions: 5-fold molar excess of compound
T1 construct: hIAPP is a 37-amino acid neuroendocrine peptide hormone; purchased Peptide 2.0 (USA)
T1 sequence (P10997 34-70 limits assumed): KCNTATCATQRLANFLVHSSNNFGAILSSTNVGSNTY
Protocol: When hIAPP was incubated with 5-fold molar excess of the hybrid molecules, no typical fibrillar assemblies were observed, rather some amorphous aggregates of different sizes were detected (Fig. 4, upper panel).
(§1) Samples (10 µL) were placed for 2 min on 400-mesh copper grids covered with carbon-stabilized Formvar film (Electron Microscopy Sciences (EMS), Hatfield, PA). Excess fluid was removed, and grids were negatively stained with 2% uranyl acetate solution (10 µL) for 2 min. After excess fluid removal, the samples were visualized using a JEM-1400 TEM (JEOL), operated at 80 kV.

[2] = target: T2, pre-formed fibrils of hIAPP (Homo sapiens, UniProt P10997); experiment: TEM of pre-formed hIAPP fibrils with the tested molecules; conditions: 5-fold molar excess of compound
T2 construct: hIAPP is a 37-amino acid neuroendocrine peptide hormone; purchased Peptide 2.0 (USA)
T2 sequence (P10997 34-70 limits assumed): T1 sequence (P10997 34-70 limits assumed)
Protocol: (§2) For efficient treatment of proteinopathies it may be advantageous to disassemble amyloid aggregates/fibrils which are usually already present at the time of diagnosis[75]–[77]. Therefore, the ability of the hybrid molecules to disrupt pre-formed fibrils of Aβ42 and hIAPP was examined. […] According to the ThT kinetic results, this time was sufficient to complete fibril formation (Fig. 2a, d). Then, various doses of the hybrid molecules were added to the pre-formed fibrils and the mixtures were incubated for additional 10 h. The process of disaggregation was monitored by ThT-binding assay, CD spectroscopy, TEM and Congo red staining (Fig. 5).
as §1

[3] = target: T3, Aβ42 (Homo sapiens, UniProt P05067); experiment: ThT-binding assay, inhibition of Aβ42 aggregation; format: biochemical; conditions: for % amyloid of Aβ42: Aβ42 10 µM; for Normalized ThT fluorescence: Aβ42:compound 1:5
T3 construct: purchased rPeptide (USA)
Protocol: ThT is known to intercalate within the amyloid fibrils resulting in fluorescence emission proportionate to the amyloid growth.
The resulting thin films were dissolved in PBS (100 mM, pH 7.4) and sonicated for 5 min to get a stock concentration of 50 µM, which immediately diluted to required concentration for an experiment. Stock solutions of ThT (4 mM in PBS) and hybrid molecules (10 mM in PBS) were prepared. All the stock solutions were diluted according to the requirement.
The experiment was performed according to the previous report. […] […] Excitation and emission wavelengths were set at 440 nm and 485 nm, respectively.

[4] = target: T2, pre-formed fibrils of hIAPP; experiment: Congo red birefringence of pre-formed hIAPP fibrils with the tested molecules; conditions: 5-fold molar excess of compound
Protocol: as §2

[5] = target: T3, Aβ42; experiment: Congo red birefringence of Aβ42 fibrils formed with the tested molecules; conditions: 5-fold excess of compound
Excerpt: These fibrils also generated the amyloid specific gold-green birefringence upon staining with Congo red (Fig. 3, bottom panel and Supplementary Fig. 6)[74].

T3 sequence (P05067 672-713 limits assumed): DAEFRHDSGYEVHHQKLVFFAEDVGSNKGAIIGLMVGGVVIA

`NC(Cc1c[nH]c2ccccc12)C(=O)NC(Cc1c[nH]c2ccccc12)C(=O)O` (stereo not drawn) [WW] was tested, and the “hIAPP fibril morphology (TEM), in words” value [1] was “clearly visible in a more densely packed network”, the “pre-formed hIAPP fibrils by TEM, in words” value [2] was “unchanged” and the “inhibition of Aβ42 fibril formation (ThT), in words” value ([3]; any molar ratio (5:1, 1:1, 1:5)) was “no inhibition effect”. The “% amyloid of Aβ42” value ([3]; molar ratio Aβ42:tested molecule 1:1) was 98.904%, the “% amyloid of Aβ42” value ([3]; molar ratio Aβ42:tested molecule 1:5) was 105.519% and the “% amyloid of Aβ42” value ([3]; molar ratio Aβ42:tested molecule 5:1) was 93.190%. The “Normalized ThT fluorescence” value ([3]; time 0.000 h) was 100.247, the “Normalized ThT fluorescence” value ([3]; time 0.167 h) was 60.188 and the “Normalized ThT fluorescence” value ([3]; time 0.333 h) was 57.612. The “Normalized ThT fluorescence” value ([3]; time 0.500 h) was 73.246, the “Normalized ThT fluorescence” value ([3]; time 0.667 h) was 91.915 and the “Normalized ThT fluorescence” value ([3]; time 0.833 h) was 133.372. For the same compound, the “Normalized ThT fluorescence” value ([3]; time 1.000 h) was 185.130, the “Normalized ThT fluorescence” value ([3]; time 1.167 h) was 238.325 and the “Normalized ThT fluorescence” value ([3]; time 1.333 h) was 306.731. For the same compound, the “Normalized ThT fluorescence” value ([3]; time 1.500 h) was 377.171, the “Normalized ThT fluorescence” value ([3]; time 1.667 h) was 441.860 and the “Normalized ThT fluorescence” value ([3]; time 1.833 h) was 512.406. For the same compound, the “Normalized ThT fluorescence” value ([3]; time 2.000 h) was 563.139, the “Normalized ThT fluorescence” value ([3]; time 2.167 h) was 622.335 and the “Normalized ThT fluorescence” value ([3]; time 2.333 h) was 703.467. For the same compound, the “Normalized ThT fluorescence” value ([3]; time 2.500 h) was 748.995, the “Normalized ThT fluorescence” value ([3]; time 2.667 h) was 831.052 and the “Normalized ThT fluorescence” value ([3]; time 2.833 h) was 768.926. The “Normalized ThT fluorescence” value ([3]; time 3.000 h) was 842.887, the “Normalized ThT fluorescence” value ([3]; time 3.167 h) was 889.978 and the “Normalized ThT fluorescence” value ([3]; time 3.333 h) was 935.606. The “Normalized ThT fluorescence” value ([3]; time 3.500 h) was 870.330, the “Normalized ThT fluorescence” value ([3]; time 3.667 h) was 968.307 and the “Normalized ThT fluorescence” value ([3]; time 3.833 h) was 972.259. For the same compound, the “Normalized ThT fluorescence” value ([3]; time 4.000 h) was 873.484, the “Normalized ThT fluorescence” value ([3]; time 4.167 h) was 934.106 and the “Normalized ThT fluorescence” value ([3]; time 4.333 h) was 1006.391. For the same compound, the “Normalized ThT fluorescence” value ([3]; time 4.500 h) was 929.674, the “Normalized ThT fluorescence” value ([3]; time 4.667 h) was 937.654 and the “Normalized ThT fluorescence” value ([3]; time 4.833 h) was 1043.183. The “Normalized ThT fluorescence” value ([3]; time 5.000 h) was 1070.273, the “Normalized ThT fluorescence” value ([3]; time 5.167 h) was 1001.135 and the “Normalized ThT fluorescence” value ([3]; time 5.333 h) was 988.346. The “Normalized ThT fluorescence” value ([3]; time 5.500 h) was 1039.570, the “Normalized ThT fluorescence” value ([3]; time 5.667 h) was 1028.736 and the “Normalized ThT fluorescence” value ([3]; time 5.833 h) was 1034.411. The “Normalized ThT fluorescence” value ([3]; time 6.000 h) was 1074.727, the “Normalized ThT fluorescence” value ([3]; time 6.167 h) was 1044.333 and the “Normalized ThT fluorescence” value ([3]; time 6.333 h) was 1117.377. The “Normalized ThT fluorescence” value ([3]; time 6.500 h) was 1116.291, the “Normalized ThT fluorescence” value ([3]; time 6.667 h) was 1054.239 and the “Normalized ThT fluorescence” value ([3]; time 6.833 h) was 1138.465. The “Normalized ThT fluorescence” value ([3]; time 7.000 h) was 1115.829, the “Normalized ThT fluorescence” value ([3]; time 7.167 h) was 1058.156 and the “Normalized ThT fluorescence” value ([3]; time 7.333 h) was 1094.730. For the same compound, the “Normalized ThT fluorescence” value ([3]; time 7.500 h) was 1092.412, the “Normalized ThT fluorescence” value ([3]; time 7.667 h) was 1062.031 and the “Normalized ThT fluorescence” value ([3]; time 7.833 h) was 1136.103. For the same compound, the “Normalized ThT fluorescence” value ([3]; time 8.000 h) was 1128.627, the “Normalized ThT fluorescence” value ([3]; time 8.167 h) was 1116.746 and the “Normalized ThT fluorescence” value ([3]; time 8.333 h) was 1080.689. The “Normalized ThT fluorescence” value ([3]; time 8.500 h) was 1146.007, the “Normalized ThT fluorescence” value ([3]; time 8.667 h) was 1085.963 and the “Normalized ThT fluorescence” value ([3]; time 8.833 h) was 1146.093. The “Normalized ThT fluorescence” value ([3]; time 9.000 h) was 1168.158, the “Normalized ThT fluorescence” value ([3]; time 9.167 h) was 1195.194 and the “Normalized ThT fluorescence” value ([3]; time 9.333 h) was 1188.939. The “Normalized ThT fluorescence” value ([3]; time 9.500 h) was 1216.176, the “Normalized ThT fluorescence” value ([3]; time 9.667 h) was 1201.344 and the “Normalized ThT fluorescence” value ([3]; time 9.833 h) was 1137.291. For the same compound, the “Normalized ThT fluorescence” value ([3]; time 10.000 h) was 1184.898, the “Normalized ThT fluorescence” value ([3]; time 10.167 h) was 1153.959 and the “Normalized ThT fluorescence” value ([3]; time 10.333 h) was 1205.518. The “Normalized ThT fluorescence” value ([3]; time 10.500 h) was 1174.187, the “Normalized ThT fluorescence” value ([3]; time 10.667 h) was 1185.205 and the “Normalized ThT fluorescence” value ([3]; time 10.833 h) was 1189.623. The “Normalized ThT fluorescence” value ([3]; time 11.000 h) was 1150.543, the “Normalized ThT fluorescence” value ([3]; time 11.167 h) was 1169.609 and the “Normalized ThT fluorescence” value ([3]; time 11.333 h) was 1161.417. The “Normalized ThT fluorescence” value ([3]; time 11.500 h) was 1208.267, the “Normalized ThT fluorescence” value ([3]; time 11.667 h) was 1187.121 and the “Normalized ThT fluorescence” value ([3]; time 11.833 h) was 1199.506. The “Normalized ThT fluorescence” value ([3]; time 12.000 h) was 1229.396, the “Normalized ThT fluorescence” value ([3]; time 12.167 h) was 1189.375 and the “Normalized ThT fluorescence” value ([3]; time 12.333 h) was 1145.079. The “Normalized ThT fluorescence” value ([3]; time 12.500 h) was 1220.539, the “Normalized ThT fluorescence” value ([3]; time 12.667 h) was 1203.612 and the “Normalized ThT fluorescence” value ([3]; time 12.833 h) was 1183.933. The “Normalized ThT fluorescence” value ([3]; time 13.167 h) was 1197.309, the “Normalized ThT fluorescence” value ([3]; time 13.333 h) was 1166.138 and the “Normalized ThT fluorescence” value ([3]; time 13.500 h) was 1200.493. For the same compound, the “Normalized ThT fluorescence” value ([3]; time 13.667 h) was 1198.718, the “Normalized ThT fluorescence” value ([3]; time 13.833 h) was 1242.576 and the “Normalized ThT fluorescence” value ([3]; time 14.000 h) was 1232.657. For the same compound, the “Normalized ThT fluorescence” value ([3]; time 14.167 h) was 1186.307, the “Normalized ThT fluorescence” value ([3]; time 14.333 h) was 1161.142 and the “Normalized ThT fluorescence” value ([3]; time 14.500 h) was 1146.151. For the same compound, the “Normalized ThT fluorescence” value ([3]; time 14.667 h) was 1198.390, the “Normalized ThT fluorescence” value ([3]; time 14.833 h) was 1196.409 and the “Normalized ThT fluorescence” value ([3]; time 15.000 h) was 1194.696. The “Normalized ThT fluorescence” value ([3]; time […]) was 1190.377, the “Congo red birefringence of pre-formed hIAPP fibrils, in words” value [4] was “unchanged” and the “Congo red birefringence of Aβ42, in words” value [5] was “intense gold-green birefringence”.
